The target in data set [1] is SYK kinase (Homo sapiens (Human), UniProt P43405). Description: In vitro SYK inhibition assay (HTRF kinase assay). It is filed as biochemical. The note with it: read-out: Syk (IC50). Here is the method:
SYK kinase was purified as a full length protein in a baculovirus system near homogeneity. All kinase assays were performed with the Kinase TK (tyrosine kinase) HTRF (Homogeneous Time Resolved Fluorescence) assay developed by Cisbio international. […] Reactions were initiated upon introduction of the enzyme and terminated with the addition of one reaction volume (25 μl) of HTRF detection buffer. Plates were incubated for one hour at room temperature and the time resolved Fluorescence resonance energy transfer signal was measured in a Pherastar FS microplate reader (BMG Labtech).
Most of the kinases tested in this study were cloned, expressed and purified in the facilities of the inventors. They were expressed either as N-terminus hexahistidine-, hexahistidine-asparagine- or GST-tagged enzymes in a baculovirus or in a Colibacille expression system. Remaining enzymes (JAKs) were purchased from Millipore or Proqinase. For each enzyme, steady state kinetic parameters were determined and validated with known inhibitors.
The analysis of the effect of compounds on kinase activity was assessed with the HTRF® KinEASE assay (Cisbio International), an immuno-assay based on the quantification of the level of phosphorylation of a biotinylated peptide substrate using anti-phospho-specific antibody labeled with Europium (Eu^3+) cryptate. This assay comprises two steps: —an enzymatic step, during which the peptide substrate, the kinase, ATP, Mg^2+ and/or Mn^2+ are incubated with varying concentration of drug (from 0 to 10 μM); —a detection step, at the end of the reaction (stopped by addition of EDTA which chelates Mg^2+), the antibody anti-phospho peptide-Eu^3+ (emission 620 nm) and streptavidin XL-665 (emission 665 nm) are added to the reaction mix. After incubation, the obtained signal is proportional to the concentration of phosphorylated peptide in the sample. All measurements were performed on a BMG Labtech Pherastar FS apparatus. Results are expressed in delta fluorescence (DF) unit defined as follow DF %=[(ratio−ratio blank)/(ratio blank)]*100, where ratio=(665 nm/620 nm)*10^4. Each experiment was performed in duplicate and repeated two or three times.

Data set [2] deals with Salmonella typhimurium strain TA98. Description: AMES mutagenic assay, TA98 strain. Here is the method:
Mutagenic activity of test compounds and their metabolites (produced by rat liver S9 fraction) was evaluated in the Salmonella typhimurium strains TA100 and TA98 according to the Ames assay (Toxicology in vitro, (2001), 15: 105-114). […] The results are expressed as a mutagenicity ratio in comparison to solvent controls.
The results are expressed as a ratio of the number of colonies over the number of colonies in the negative control (DMSO).

Here are results for 21 compounds from patent US10053455B2, “Diazaspiroalkaneone-substituted oxazole derivatives as spleen tyrosine kinase inhibitors” (AB SCIENCE, priority 2014, dated 2018).

Regarding `N#Cc1ccnc(Nc2cccc(-c3cnc(N4CCNC(=O)C45CC5)o3)c2)n1` [Compound 002, 2-{3-[2-(8-Oxo-4,7-diaza-spiro[2.5]oct-4-yl)-oxazol-5-yl]-phenylamino}-pyrimidine-4-carbonitrile], in data set [1], the IC50 is less than 500 nM.
In the case of `O=[N+]([O-])c1ccc2c(c1)Cc1ccccc1-2` [Compound 2-NF, 2-Nitrofluorene, reference compound], in data set [2] (Salmonella typhimurium, 0.25 μg per well), the “Mean revertant colony counts” value was 59.7. The Ratio treated/solvent in data set [2] (TA98, absence of S-9, 0.25 μg per well (positive control)) amounted to 13.8.
In the case of `O=C1NCCN(c2ncc(-c3cc(CN4CCOCC4)cc(Nc4nccc(C(F)(F)F)n4)c3)o2)C12CC2` [Compound 003, 4-{5-[3-Morpholin-4-ylmethy1-5-(4-trifluoromethyl-pyrimidin-2-ylamino)-phenyl]-oxazol-2-yl}-4,7-diaza-spiro[2.5]octan-8-one], in data set [1], the IC50 was less than 500 nM.
Same read-out and setting: in the case of `O=C1NCCN(c2ncc(-c3cc(Nc4nccc(-c5cccs5)n4)ccc3OCCN3CCOCC3)o2)C12CC2` [Compound 004, 4-{5-[2-(2-Morpholin-4-yl-ethoxy)-5-(4-thiophen-2-yl-pyrimidin-2-ylamino)-phenyl]-oxazol-2-yl}-4,7-diaza-spiro[2.5]octan-8-one] it was less than 500 nM.
Same read-out and setting: then `Cc1cc(Nc2nccc(C(F)(F)F)n2)cc(-c2cnc(N3CCNC(=O)C34CC4)o2)c1` [Compound 005, 4-{5-[3-Methy1-5-(4-trifluoromethyl-pyrimidin-2-ylamino)-phenyl]-oxazol-2-yl}-4,7-diaza-spiro[2.5]octan-8-one], with less than 500 nM; and `Cc1ccnc(Nc2cc(CN3CCOCC3)cc(-c3cnc(N4CCNC(=O)C45CC5)o3)c2)n1` [Compound 006, 4-{5-[3-(4-Methyl-pyrimidin-2-ylamino)-5-morpholin-4-ylmethyl-phenyl]-oxazol-2-yl}-4,7-diaza-spiro[2.5]octan-8-one], with less than 500 nM.
As to `CCc1ccnc(Nc2cccc(-c3cnc(N4CCNC(=O)C45CC5)o3)c2)n1` [Compound 007, 4-{5-[3-(4-Ethyl-pyrimidin-2-ylamino)-phenyl]-oxazol-2-yl}-4,7-diaza-spiro[2.5]octan-8-one], the IC50 in data set [1] is less than 500 nM.
The same measure, in the same setting: in the case of `O=C1NCCN(c2ncc(-c3cccc(Nc4nccc(C(F)(F)F)n4)c3)o2)C12CC2` [Compound 008, 4-{5-[3-(4-Trifluoromethyl-pyrimidin-2-ylamino)-phenyl]-oxazol-2-yl}-4,7-diaza-spiro[2.5]octan-8-one] it was less than 500 nM.
On the same count and under the same terms, then `Cc1ccnc(Nc2cccc(-c3cnc(N4CCNC(=O)C45CCCC5)o3)c2)n1` [Compound 009, 6-{5-[3-(4-Methyl-pyrimidin-2-ylamino)-phenyl]-oxazol-2-yl}-6,9-diaza-spiro[4.5]decan-10-one], with less than 500 nM; and `O=C1NCCN(c2ncc(-c3cccc(Nc4nccc(-c5ccccc5)n4)c3)o2)C12CC2` [Compound 010, 4-{5-[3-(4-Phenyl-pyrimidin-2-ylamino)-phenyl]-oxazol-2-yl}-4,7-diaza-spiro[2.5]octan-8-one], with less than 500 nM; and `CC(C)c1ccnc(Nc2cccc(-c3cnc(N4CCNC(=O)C45CCC5)o3)c2)n1` [Compound 011, 5-{5-[3-(4-Isopropyl-pyrimidin-2-ylamino)-phenyl]-oxazol-2-yl}-5,8-diaza-spiro[3.5]non-9-one], with less than 500 nM.
Same read-out and setting: then `Cc1ccnc(Nc2cccc(-c3cnc(N4CCNC(=O)C45CCC5)o3)c2)n1` [Compound 012, 5-{5-[3-(4-Methyl-pyrimidin-2-ylamino)-phenyl]-oxazol-2-yl}-5,8-diaza-spiro[3.5]nonan-9-one], with less than 500 nM; and `CC(C)c1ccnc(Nc2cccc(-c3cnc(N4CCNC(=O)C45CC5)o3)c2)n1` [Compound 013, 4-{5-[3-(4-Isopropyl-pyrimidin-2-ylamino)-phenyl]-oxazol-2-yl}-4,7-diaza-spiro[2.5]octan-8-one], with less than 500 nM.
For `O=C1NCCN(c2ncc(-c3cccc(Nc4nccc(N5CCOCC5)n4)c3)o2)C12CC2` [Compound 014, 4-{5-[3-(4-Morpholin-4-yl-pyrimidin-2-ylamino)-phenyl]-oxazol-2-yl}-4,7-diaza-spiro[2.5]octan-8-one], the IC50 in data set [1] was greater than 2000 nM.
For the compound `O=C1NCCN(c2ncc(-c3cccc(Nc4nccc(-c5cccs5)n4)c3)o2)C12CC2` [Compound 015, 4-{5-[3-(4-Thiophen-2-yl-pyrimidin-2-ylamino)-phenyl]-oxazol-2-yl}-4,7-diaza-spiro[2.5]octan-8-one], in data set [1], the IC50 was less than 500 nM.
Regarding `O=C1NCCN(c2ncc(-c3cccc(Nc4nccc(C(F)(F)F)n4)c3)o2)C12CCC2` [Compound 016, 5-{5-[3-(4-Trifluoromethyl-pyrimidin-2-ylamino)-phenyl]-oxazol-2-yl}-5,8-diaza-spiro[3.5]nonan-9-one], the IC50 in data set [1] was less than 500 nM.
Still for that read-out and setting: in the case of `O=C1NCCN(c2ncc(-c3cc(Nc4nccc(C(F)(F)F)n4)ccc3OCCN3CCOCC3)o2)C12CC2` [Compound 017, 4-{5-[2-(2-Morpholin-4-yl-ethoxy)-5-(4-trifluoromethyl-pyrimidin-2-ylamino)-phenyl]-oxazol-2-yl}-4,7-diaza-spiro[2.5]octan-8-one] it was less than 500 nM; in that of `Cc1ccnc(Nc2ccc(F)c(-c3cnc(N4CCNC(=O)C45CC5)o3)c2)n1` [Compound 018, 4-{5-[2-Fluoro-5-(4-methyl-pyrimidin-2-ylamino)-phenyl]-oxazol-2-yl}-4,7-diaza-spiro[2.5]octan-8-one], less than 500 nM; in that of `Cc1ccnc(Nc2cccc(-c3cnc(N4CCNC(=O)C45CC5)o3)c2C)n1` [Compound 020, 4-{5-[2-Methyl-3-(4-methyl-pyrimidin-2-ylamino)-pheny]-oxazol-2-yl}-4,7-diaza-spiro[2.5]octan-8-one], greater than 2000 nM.
Regarding `Cc1ccnc(Nc2cccc(-c3cnc(N4CCNC(=O)C45CC5)o3)c2)c1` [Compound 021, 4-{5-[3-(4-Methyl-pyridin-2-ylamino)-phenyl]-oxazol-2-yl}-4,7-diaza-spiro[2.5]octan-8-one], the IC50 in data set [1] is 500 to 2000 nM.
Consider `O=C1NCCN(c2ncc(-c3cccc(Nc4nccs4)c3)o2)C12CC2` [Compound 022, 4-{5-[3-(Thiazol-2-ylamino)-phenyl]-oxazol-2-yl}-4,7-diaza-spiro[2.5]octan-8-one], for which the IC50 in data set [1] is less than 500 nM.
